We go through four molecules from patent US4173481A (priority 1976, dated 1979).

Experiment [1] can be described thus: Photographic properties (fog, relative sensitivity, maximum density of the magenta dye image). Particulars: 1.5 g per 100 g of dry gelatin, Table 1; for Relative Sensitivity: control = 100; for Maximum Density: magenta dye image. The method, then:
A silver iodobromide emulsion containing 6.0 mol % of silver iodide was optimally ripened using a sulfur-containing sensitizer and a gold sensitizer to prepare a high speed negative emulsion. To the emulsion were added anhydro-5,5'-tetrachloro-1,1'-diethyl-3,3'-di-(3-sulfopropyl)-benzimidazolocarbocyanine hydroxide as a spectral sensitizer, 4-hydroxy-6-methyl-1,3,3a,7-tetrazaindene as a stabilizer, and 1-(2,4,6-trichlorophenyl)-3-[3-(2,4-di-tert-amylphenoxyacetamide)benzamido]-5-pyrazolone (which was dissolved in tricresyl phosphate and ethyl acetate and dispersed in gelatin with sodium dodecylbenzenesulfonate) as a magenta color forming coupler to prepare an emulsion for a green-sensitivelayer of a color negative light-sensitive material. The emulsion thus-obtained was divided into four portions and a first portion was used as control. To the other three portions were added an aqueous solution of Compound 1 of the present invention, dimethylol urea (Compound A) and mucochloric acid (Compound B), respectively, in an amount of 1.5 g per 100 g of dry gelatin. Each emulsion was coated on a subbed cellulose triacetate support in a coated coupler amount of 1.5×10^-3 mol/m^2 and dried.
These samples were exposed to green light using an NSG II type sensitometer and processed according to the color processing procedure as described in Example 1 of Japanese patent application (OPI) No. 51940/1976 as follows.
The density of the magenta dye image thus-obtained was measured and fog, relative sensitivity and maximum density were determined.

Experiment [2] can be described thus: Strength of gelatin layer surface. Particulars: 65% RH, 5×10^-5 mol per g of dry gelatin. Here is the method: A sample was immersed in water at 25° C. for 5 minutes. A pin equipped with a steel ball having a radius of 0.2 mm on the point thereof was pressed on the surface of the sample and the pin was moved at a rate of 5 mm per second on the surface of the sample while the load applied to the pin was continuously varied in the range of 0 to 100 g. The load (g) at which a scratch occurred on the surface was measured.
A 5% solution of gelatin was divided into four portions, a first portion was used as a control and to the other three portions were added Compound 1 of the present invention, Compound B and Compound E in an amount of 5×10^-5 mol per g of dry gelatin, respectively. Each gelatin solution was coated on a subbed polyester film support and dried.
After storing the samples obtained under conditions of 25° C., 65% RH, the strength of the gelatin layer surface thereof was determined.

Experiment [3] in a line: Melting Time in 0.2 N aqueous sodium hydroxide at 60° C. The settings on record: 0.2 N NaOH. The method, then: An emulsion for a green-sensitive layer of a color negative light-sensitivematerial obtained in the same manner as described in Example 1 was divided into four portions, a first portion was used as a control. To the other three portions were added an aqueous solution of Compound 1, 1,3,5-tris(β-vinylsulfonylpropyl)hexahydro-s-triazine (Compound C), bis(vinylsulfonylmethyl) ether (Compound D) in an amount of 1.5 g per 100 g of dry gelatin, respectively. Each emulsion was coated on a subbed polyethylene terephthalate support at a thickness of 5μ and dried.
The strength of the layer was determined using the two methods described below with samples stored at 25° C., 65% RH for 2 days or for 20 days and a sample heat treated at 50° C., 80% RH for 2 days.
A sample strip was immersed in a 0.2 N aqueous solution of sodium hydroxide at 60° C. and the time (min) when the emulsion layer began to melt was measured.

In the case of `C=CS(=O)(=O)CC(O)CS(=O)(=O)C=C` [Compound 1, 1,3-bis(Vinylsulfonyl)-2-propanol], the Fog in experiment [1] came out at 0.10. Further, the “Relative Sensitivity” value in experiment [1] came to 92. The “Maximum Density” value in experiment [1] is on record as 2.80. Besides, the “Strength of Layer Surface” value amounted to 48 g in experiment [2] (2 Days at 25° C.), 56 g in experiment [2] (7 Days at 25° C.), 58 g in experiment [2] (14 Days at 25° C.) and 60 g in experiment [2] (21 Days at 25° C.). Further, the “Melting Time” value in experiment [3] (2 Days Heated, 50° C., 80% RH) is 30 min; in experiment [3] (2 Days at 25° C., 65% RH), 13.5 min; in experiment [3] (20 Days at 25° C., 65% RH) it was 27 min.

As to “1,3,5-tris(β-vinylsulfonylpropyl)hexahydro-s-triazine [Compound C]”, the “Melting Time” value is on record as 3 min in experiment [3] (2 Days Heated, 50° C., 80% RH); 1 min in experiment [3] (2 Days at 25° C., 65% RH); 2.5 min in experiment [3] (20 Days at 25° C., 65% RH).

The molecule `O=C/C(Cl)=C(/Cl)C(=O)O` [Compound B, mucochloric acid] came in with a Fog in experiment [1] of 0.14. Moreover, the “Relative Sensitivity” value in experiment [1] is on record as 85. Further, the “Maximum Density” value in experiment [1] is recorded as 2.70. Moreover, the “Strength of Layer Surface” value in experiment [2] (2 Days at 25° C.) amounted to 21 g; in experiment [2] (7 Days at 25° C.) it was 36 g; in experiment [2] (14 Days at 25° C.) it was 45 g; in experiment [2] (21 Days at 25° C.), 52 g.

Consider `C=CS(=O)(=O)CCS(=O)(=O)C=C` [Compound E, 1,2-bis(vinylsulfonyl)ethane], for which the “Strength of Layer Surface” value in experiment [2] (2 Days at 25° C.) worked out at 18 g; in experiment [2] (7 Days at 25° C.) it was 25 g; in experiment [2] (14 Days at 25° C.), 32 g; in experiment [2] (21 Days at 25° C.), 36 g.
